{"source": "patent US11986478B2", "about": "(priority 2021, dated 2024)", "key": {"[1]": {"test_system": "SARS-CoV-2 variants of concern B.1.1.7 (Alpha), B.1.351 (Beta) and B.1.617.2 (Delta)", "assay": "microbe, parasite or virus in culture", "format": "cell-based", "conditions": "Severe acute respiratory syndrome coronavirus 2, VeroE6/TMPRSS2, read-out: EC50 against SARS-CoV-2 variants of concern"}, "SARS2-PLpro K157A mutant": {"biological_target": "SARS2-PLpro K157A mutant (Severe acute respiratory syndrome coronavirus 2, UniProt P0DTD1, K1720A)", "format": "biochemical, SARS-CoV-2"}}}
{"smiles": "O=C(Nc1ccccc1Cl)c1sc(=S)n2c1[nH]c(=O)c1ccccc12", "note": "[Compound F0213]", "values": [{"measurement": "EC50", "setting": "[1]", "value": "2.2 to 4.8", "unit": "µM"}, {"measurement": "effect of K157A substitution on inhibitory potency", "setting": "SARS2-PLpro K157A mutant", "value": "significantly diminished the inhibitory potency"}]}
